Results taken from patent US12617779B2, “Self degradation-type CDK9 inhibitor prodrug and liposome encapsulating same” (Sumitomo Pharma Co., Ltd., priority 2021, dated 2026).

Assay: Evaluation of conversion rate to active form in buffer solution (Experimental Example 1)
Format: physicochemical
Conditions: for Production rate of Alvocidib / Residual rate: 37° C., 25 umol/L in buffer solution; for Stability in buffer solution at pH 5: pH 5, 37° C., up to 2 or 3 hours; for Conversion to Alvocidib at pH 7.4: pH 7.4, 37° C., up to 3 hours
Procedure, shortened: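 Conversion to Alvocidib was followed by HPLC over 3 hours at 37° C, with test compounds at 25 umol/L in 50 mM citrate or phosphate buffers spanning pH 5.0–7.4.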

SMILES: CN1CC[C@H](c2c(OC(=O)N(Cc3ccccc3)CC3CCCCN3)cc(O)c3c(=O)cc(-c4ccccc4Cl)oc23)[C@H](O)C1 (stereo partly drawn) [Example 15, 2-(2-chlorophenyl)-5-hydroxy-8-[(3S,4R)-3-hydroxy-1-methylpiperidin-4-yl]-4-oxo-4H-1-benzopyran-7-yl benzyl [(piperidin-2-yl)methyl]carbamate]
- Production rate of Alvocidib (pH5.0, 0 hr): 1.4%
- Residual rate (pH5.0, 0 hr): 95.6%
- Stability in buffer solution at pH 5: stable
- Production rate of Alvocidib (pH5.0, 0.5 hr): 1.9%
- Residual rate (pH5.0, 0.5 hr): 95.2%
- Production rate of Alvocidib (pH5.0, 1 hr): 2.6%
- Residual rate (pH5.0, 1 hr): 94.7%
- Production rate of Alvocidib (pH5.0, 2 hr): 3.8%
- Residual rate (pH5.0, 2 hr): 93.5%
- Production rate of Alvocidib (pH5.0, 3 hr): 4.6%
- Residual rate (pH5.0, 3 hr): 92.5%
- Production rate of Alvocidib (pH5.5, 0 hr): 1.4%
- Residual rate (pH5.5, 0 hr): 95.6%
- Production rate of Alvocidib (pH5.5, 0.5 hr): 2.8%
- Residual rate (pH5.5, 0.5 hr): 94.2%
- Production rate of Alvocidib (pH5.5, 1 hr): 4.5%
- Residual rate (pH5.5, 1 hr): 92.7%
- Production rate of Alvocidib (pH5.5, 2 hr): 7.8%
- Residual rate (pH5.5, 2 hr): 89.5%
- Production rate of Alvocidib (pH5.5, 3 hr): 9.5%
- Residual rate (pH5.5, 3 hr): 87.8%
- Production rate of Alvocidib (pH6.0, 0 hr): 1.5%
- Residual rate (pH6.0, 0 hr): 95.5%
- Production rate of Alvocidib (pH6.0, 0.5 hr): 6.2%
- Residual rate (pH6.0, 0.5 hr): 91.0%
- Production rate of Alvocidib (pH6.0, 1 hr): 12.4%
- Residual rate (pH6.0, 1 hr): 84.7%
- Production rate of Alvocidib (pH6.0, 2 hr): 22.3%
- Residual rate (pH6.0, 2 hr): 62.8%
- Production rate of Alvocidib (pH6.0, 3 hr): 25.7%
- Residual rate (pH6.0, 3 hr): 56.7%
- Production rate of Alvocidib (pH6.5, 0 hr): 1.9%
- Residual rate (pH6.5, 0 hr): 94.8%
- Production rate of Alvocidib (pH6.5, 0.5 hr): 15.1%
- Residual rate (pH6.5, 0.5 hr): 82.2%
- Production rate of Alvocidib (pH6.5, 1 hr): 26.1%
- Residual rate (pH6.5, 1 hr): 56.3%
- Production rate of Alvocidib (pH6.5, 2 hr): 44.6%
- Residual rate (pH6.5, 2 hr): 32.9%
- Production rate of Alvocidib (pH6.5, 3 hr): 52.4%
- Residual rate (pH6.5, 3 hr): 24.3%
- Production rate of Alvocidib (pH7.0, 0 hr): 2.8%
- Residual rate (pH7.0, 0 hr): 94.1%
- Production rate of Alvocidib (pH7.0, 0.5 hr): 40.7%
- Residual rate (pH7.0, 0.5 hr): 38.5%
- Production rate of Alvocidib (pH7.0, 1 hr): 56.9%
- Residual rate (pH7.0, 1 hr): 7.1%
- Production rate of Alvocidib (pH7.0, 2 hr): 69.8%
- Residual rate (pH7.0, 2 hr): 3.8%
- Production rate of Alvocidib (pH7.0, 3 hr): 69.9%
- Residual rate (pH7.0, 3 hr): 3.9%
- Production rate of Alvocidib (pH7.4, 0 hr): 4.8%
- Residual rate (pH7.4, 0 hr): 92.2%
- Conversion to Alvocidib at pH 7.4: rapidly converted to Alvocidib
- Production rate of Alvocidib (pH7.4, 0.5 hr): 54.7%
- Residual rate (pH7.4, 0.5 hr): 21.1%
- Production rate of Alvocidib (pH7.4, 1 hr): 67.3%
- Residual rate (pH7.4, 1 hr): 8.0%
- Production rate of Alvocidib (pH7.4, 2 hr): 75.2%
- Residual rate (pH7.4, 2 hr): 3.1%
- Production rate of Alvocidib (pH7.4, 3 hr): 77.2%
- Residual rate (pH7.4, 3 hr): 2.9%

SMILES: CCN(CCC1CCCCN1)C(=O)Oc1cc(O)c2c(=O)cc(-c3ccccc3Cl)oc2c1[C@H]1CCN(C)C[C@H]1O (stereo partly drawn) [Example 16, 2-(2-chlorophenyl)-5-hydroxy-8-[(3S,4R)-3-hydroxy-1-methylpiperidin-4-yl]-4-oxo-4H-1-benzopyran-7-yl ethyl[2-(piperidin-2-yl)ethyl]carbamate]
- Production rate of Alvocidib (pH5.0, 0 hr): 0.0%
- Residual rate (pH5.0, 0 hr): 84.3%
- Stability in buffer solution at pH 5: stable
- Production rate of Alvocidib (pH5.0, 0.5 hr): 0.0%
- Residual rate (pH5.0, 0.5 hr): 84.9%
- Production rate of Alvocidib (pH5.0, 1 hr): 0.0%
- Residual rate (pH5.0, 1 hr): 86.4%
- Production rate of Alvocidib (pH5.0, 2 hr): 0.0%
- Residual rate (pH5.0, 2 hr): 86.1%
- Production rate of Alvocidib (pH5.0, 3 hr): 0.0%
- Residual rate (pH5.0, 3 hr): 86.1%
- Production rate of Alvocidib (pH5.5, 0 hr): 0.0%
- Residual rate (pH5.5, 0 hr): 84.9%
- Production rate of Alvocidib (pH5.5, 0.5 hr): 0.0%
- Residual rate (pH5.5, 0.5 hr): 85.8%
- Production rate of Alvocidib (pH5.5, 1 hr): 0.0%
- Residual rate (pH5.5, 1 hr): 86.3%
- Production rate of Alvocidib (pH5.5, 2 hr): 0.0%
- Residual rate (pH5.5, 2 hr): 85.7%
- Production rate of Alvocidib (pH5.5, 3 hr): 0.0%
- Residual rate (pH5.5, 3 hr): 86.6%
- Production rate of Alvocidib (pH6.0, 0 hr): 0.0%
- Residual rate (pH6.0, 0 hr): 85.3%
- Production rate of Alvocidib (pH6.0, 0.5 hr): 0.0%
- Residual rate (pH6.0, 0.5 hr): 84.3%
- Production rate of Alvocidib (pH6.0, 1 hr): 12.8%
- Residual rate (pH6.0, 1 hr): 71.7%
- Production rate of Alvocidib (pH6.0, 2 hr): 21.6%
- Residual rate (pH6.0, 2 hr): 63.0%
- Production rate of Alvocidib (pH6.0, 3 hr): 29.3%
- Residual rate (pH6.0, 3 hr): 55.6%
- Production rate of Alvocidib (pH6.5, 0 hr): 0.0%
- Residual rate (pH6.5, 0 hr): 86.0%
- Production rate of Alvocidib (pH6.5, 0.5 hr): 16.4%
- Residual rate (pH6.5, 0.5 hr): 67.6%
- Production rate of Alvocidib (pH6.5, 1 hr): 25.3%
- Residual rate (pH6.5, 1 hr): 61.4%
- Production rate of Alvocidib (pH6.5, 2 hr): 47.1%
- Residual rate (pH6.5, 2 hr): 37.4%
- Production rate of Alvocidib (pH6.5, 3 hr): 51.5%
- Residual rate (pH6.5, 3 hr): 34.9%
- Production rate of Alvocidib (pH7.0, 0 hr): 0.0%
- Residual rate (pH7.0, 0 hr): 86.2%
- Production rate of Alvocidib (pH7.0, 0.5 hr): 30.5%
- Residual rate (pH7.0, 0.5 hr): 54.8%
- Production rate of Alvocidib (pH7.0, 1 hr): 50.2%
- Residual rate (pH7.0, 1 hr): 35.7%
- Production rate of Alvocidib (pH7.0, 2 hr): 68.6%
- Residual rate (pH7.0, 2 hr): 16.9%
- Production rate of Alvocidib (pH7.0, 3 hr): 78.2%
- Residual rate (pH7.0, 3 hr): 7.7%
- Production rate of Alvocidib (pH7.4, 0 hr): 0.9%
- Residual rate (pH7.4, 0 hr): 85.3%
- Conversion to Alvocidib at pH 7.4: rapidly converted to Alvocidib
- Production rate of Alvocidib (pH7.4, 0.5 hr): 59.0%
- Residual rate (pH7.4, 0.5 hr): 23.2%
- Production rate of Alvocidib (pH7.4, 1 hr): 77.8%
- Residual rate (pH7.4, 1 hr): 5.9%
- Production rate of Alvocidib (pH7.4, 2 hr): 82.1%
- Residual rate (pH7.4, 2 hr): 2.2%
- Production rate of Alvocidib (pH7.4, 3 hr): 85.8%
- Residual rate (pH7.4, 3 hr): 0.0%
